# Results from patent US20230017532A1 (Hoffmann-La Roche Inc., priority 2018, published 2023).
# Counter-ions that a name gives are not always drawn.
# Tested on: Acinetobacter baumannii ATCC17978
# Assay: Antimicrobial susceptibility testing: 90% growth inhibitory concentration (IC90) determination, Iso-Sensitest broth, OD 600 nm
# Type: cell-based
# Details: 90% growth inhibitory concentration, Acinetobacter baumannii ATCC17978, Iso-Sensitest broth, OD 600 nm over 16 h; read-out: ATCC 17978 IC90
# In short: (§1)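 Twofold serial dilutions (e.g. 50–0.097 μM final) incubated with ~5×10^5 CFU/ml in Iso-Sensitest broth at 35±2 °C. OD600 read every 20 min for 16 h; IC90 derived from growth inhibition during logarithmic phase.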
row,IC90 [nM],Compound
1,55,"CCc1cc(Nc2nccn3c(-c4ccc(OCC#N)c(F)c4F)cnc23)ccc1C(=O)NCCOCCN [Example 85, N-[2-(2-aminoethoxy)ethyl]-4-[[3-[4-(cyano-methoxy)-2,3-difluorophenyl]imidazo[1,2-a]pyrazin-8-yl]amino]-2-ethyl-benzamide;2,2,2-trifluoroacetic acid]"

# Same assay, conditions: Acinetobacter baumannii, ATCC17978, 16 h, 90% growth inhibitory concentration, Acinetobacter baumannii ATCC17978, Iso-Sensitest broth, OD 600 nm over 16 h; read-out: ATCC 17978 IC90
row,IC90 [nM],Compound
1,170,"Cc1cc(Nc2nccn3c(-c4ccc(OC(F)F)cc4)cnc23)ccc1C(=O)NCCOCC(N)=O [Example 10, N-(2-(2-amino-2-oxoethoxy)ethyl)-4-((3-(4-(difluoromethoxy)phenyl)imidazo[1,2-a]pyrazin-8-yl)amino)-2-methylbenzamide]"
2,370,"COc1ccc(-c2cnc3c(Nc4ccc(C(=O)NCCOCCN)c(CC(F)F)c4)nccn23)cc1F [Example 173, N-[2-(2-aminoethoxy)ethyl]-2-(2,2-difluoroethyl)-4-[[3-(3-fluoro-4-methoxyphenyl)imidazo[1,2-a]pyrazin-8-yl]amino] benzamide; formic acid]"
3,160,"CCc1cc(Nc2nccn3c(-c4ccc(Cl)c(F)c4F)cnc23)ccc1C(=O)NCCOCCN [Example 9, N-(2-(2-aminoethoxy)ethyl)-4-((3-(4-chloro-2,3-difluorophenyl)imidazo[1,2-a]pyrazin-8-yl)amino)-2-ethylbenzamide hydrochloride]"
4,210,"COc1ccc(-c2cnc3c(Nc4ccc(C(=O)NCCOCCNCCO)c(C)c4)nccn23)cc1 [Example 40, N-(2-(2-((2-hydroxyethyl)amino)ethoxy)ethyl)-4-((3-(4-methoxyphenyl)imidazo[1,2-a]pyrazin-8-yl)amino)-2-methylbenzamide]"
5,520,"COc1ccc(-c2cnc3c(Nc4ccc(C(=O)N(C)CCOCCN5CC6(COC6)C5)c(C)c4)nccn23)cc1F [Example 108, 4-[[3-(3-fluoro-4-methoxyphenyl)imidazo[1,2-a]pyrazin-8-yl]amino]-N,2-dimethyl-N-[2-[2-(2-oxa-6-azaspiro [3.3]heptan-6-yl)ethoxy]ethyl] benzamide]"
6,1600,"Cc1cc(Nc2nccn3c(-c4ccc(OC(F)F)cc4)cnc23)ccc1C(=O)NCCOCCOCCOCCO [Example 152, 4-[[3-[4-(difluoro-methoxy)phenyl]imidazo [1,2-a]pyrazin-8-yl]amino]-N-[2-[2-[2-(2-hydroxyethoxy)ethoxy]ethoxy]ethyl]-2-methylbenzamide]"
7,5100,"Cc1cc(Nc2nccn3c(-c4ccc(Cl)c(F)c4F)cnc23)ccc1C(=O)NCCNCCO [Example 80, 4-[[3-(4-chloro-2,3-difluorophenyl)imidazo[1,2-a]pyrazin-8-yl]amino]-N-[2-(2-hydroxy-ethylamino)ethyl]-2-methyl-benzamide; hydrochloride]"
8,210,"CCc1cc(Nc2nccn3c(-c4ccc(Cl)c(F)c4F)cnc23)ccc1C(=O)NCCSCCN [Example 159, N-[2-(2-aminoethyl-sulfanyl)ethyl]-4-[[3-(4-chloro-2,3-difluorophenyl)imidazo[1,2-a]pyrazin-8-yl]amino]-2-ethylbenzamide]"
9,590,"COc1ccc(-c2cnc3c(Nc4ccc(C(=O)NCCOCCO)c(C)c4)nccn23)cc1 [Example 116, N-[2-(2-hydroxyethoxy)ethyl]-4-[[3-(4-methoxyphenyl)imidazo[1,2-a]pyrazin-8-yl]amino]-2-methylbenzamide]"
10,500,"COc1ccc(-c2cnc3c(Nc4ccc(C(=O)NCCOCCn5ccnn5)c(C)c4)nccn23)cc1 [Example 107, 4-[[3-(4-methoxyphenyl)imidazo[1,2-a]pyrazin-8-yl]amino]-2-methyl-N-[2-[2-(triazol-1-yl)ethoxy]ethyl] benzamide]"
11,440,"Cc1cc(Nc2nccn3c(-c4ccc(OCC#CCOCCN)cc4)cnc23)ccc1C(=O)NCCOCCN [Example 100, 4-[[3-[4-[4-(2-aminoethoxy)but-2-ynoxy]phenyl]imidazo[1,2-a]pyrazin-8-yl]amino]-N-[2-(2-aminoethoxy)ethyl]-2-methylbenzamide; formic acid]"
12,280,"CCc1cc(Nc2nccn3c(-c4ccc(OC(F)F)c(F)c4F)cnc23)ccc1C(=O)NCCCNCCO [Example 193, 4-((3-(4-(difluoro-methoxy)-2,3-difluorophenyl)imidazo[1,2-a]pyrazin-8-yl)amino)-2-ethyl-N-(3-((2-hydroxyethyl)amino)propyl) benzamide]"
13,57,"COc1ccc(-c2cnc3c(Nc4ccc(C(=O)NCCOCCN)c(Cl)c4)nccn23)c(F)c1F [Example 18, N-(2-(2-aminoethoxy)ethyl)-2-chloro-4-((3-(2,3-difluoro-4-methoxyphenyl)imidazo[1,2-a]pyrazin-8-yl)amino)benzamide]"
14,290,"CNCCOCCNC(=O)c1ccc(Nc2nccn3c(-c4ccc(OC(F)F)cc4)cnc23)cc1C [Example 45, 4-((3-(4-(difluoromethoxy)phenyl)imidazo[1,2-a]pyrazin-8-yl)amino)-2-methyl-N-(2-(2-(methylamino)ethoxy)ethyl)benzamide]"
15,120,"COc1ccc(-c2cnc3c(Nc4ccc(C(=O)NCCOCCN(C)C)c(Cl)c4)nccn23)c(F)c1F [Example 2, 2-chloro-4-[[3-(2,3-difluoro-4-methoxy-phenyl)imidazo[1,2-a]pyrazin-8-yl]amino]-N-[2-[2-(dimethylamino)ethoxy]ethyl]benzamide;2,2,2-trifluoroacetic acid]"
16,1000,"COc1ccc(-c2cnc3c(Nc4ccc(C(=O)N(C)CCOCCN5CCN(C=O)CC5)c(C)c4)nccn23)cc1F [Example 140, 4-[[3-(3-fluoro-4-methoxyphenyl)imidazo[1,2-a]pyrazin-8-yl]amino]-N-[2-[2-(4-formylpiperazin-1-yl)ethoxy]ethyl]-N,2-dimethyl-benzamide]"
17,1100,"Cc1cc(Nc2nccn3c(-c4ccc(OC(F)F)cc4)cnc23)ccc1C(=O)NCCOCCOCCOCCN [Example 17, N-(2-(2-(2-(2-aminoethoxy)ethoxy)ethoxy)ethyl)-4-((3-(4-(difluoromethoxy)phenyl)imidazo[1,2-a]pyrazin-8-yl)amino)-2-methylbenzamide]"
18,200,"COc1ccc(-c2cnc3c(Nc4ccc(C(=O)NCCN(C)CCN)c(C)c4)nccn23)cc1F [Example 23, N-(2-((2-aminoethyl)(methyl)amino)ethyl)-4-((3-(3-fluoro-4-methoxyphenyl)imidazo[1,2-a]pyrazin-8-yl)amino)-2-methylbenzamide]"

# Same assay, conditions: Acinetobacter baumannii, ATCC17978, 16 h, read-out: ATCC 17978 IC90
row,Compound,IC90 [nM]
1,"COc1ccc(-c2cnc3c(Nc4ccc(C(=O)NCCOCCN)c(CC(F)F)c4)nccn23)c(F)c1F [Example 75, N-[2-(2-aminoethoxy)ethyl]-2-(2,2-difluoroethyl)-4-[[3-(2,3-difluoro-4-methoxy-phenyl)imidazo[1,2-a]pyrazin-8-yl]amino]benzamide; formic acid]",160
2,"COc1ccc(-c2cnc3c(Nc4cc(C)c(C(=O)NCCOCCN)c(F)c4)nccn23)c(F)c1F [Example 58, N-(2-(2-Aminoethoxy)ethyl)-4-((3-(2,3-difluoro-4-methoxyphenyl)imidazo[1,2-a]pyrazin-8-yl)amino)-2-fluoro-6-methylbenzamide formate]",51
3,"COc1ccc(-c2cnc3c(Nc4ccc(C(=O)NCCOCCN)c(C)c4)nccn23)c(F)c1 [Example 34, N-(2-(2-aminoethoxy)ethyl)-4-((3-(2-fluoro-4-methoxyphenyl)imidazo[1,2-a]pyrazin-8-yl)amino)-2-methylbenzamide hydrochloride]",590

# Tested on: Acinetobacter baumannii ATCC17961
# Assay: as above
# Type: cell-based
# Details: 90% growth inhibitory concentration, Acinetobacter baumannii ATCC17961, Iso-Sensitest broth, OD 600 nm over 16 h; read-out: ATCC 17961 IC90
# In short: as §1
row,IC90 [nM],Compound
1,360,"C#CCOc1ccc(-c2cnc3c(Nc4ccc(C(=O)N[C@@H](C)CNCCNC(C)=O)c(CC)c4)nccn23)c(F)c1F [Example 201, N-[(1S)-2-(2-acetamidoethyl-amino)-1-methyl-ethyl]-4-[[3-(2,3-difluoro-4-prop-2-ynoxy-phenyl)imidazo[1,2-a]pyrazin-8-yl]amino]-2-ethyl-benzamide]"
2,940,"CCc1cc(Nc2nccn3c(-c4cc(F)cc(OC)c4)cnc23)ccc1C(=O)NCCOCCN [Example 211, N-[2-(2-amino-ethoxy)ethyl]-2-ethyl-4-[[3-(3-fluoro-5-methoxy-phenyl)imidazo [1,2-a]pyrazin-8-yl]amino] benzamide]"
3,56,"COc1ccc(-c2cnc3c(Nc4cc(C)c(C(=O)NCCOCCN(C)C)c(F)c4)nccn23)c(F)c1F [Example 190, 4-[[3-(2,3-difluoro-4-methoxyphenyl)imidazo[1,2-a]pyrazin-8-yl]amino]-N-[2-[2-(dimethylamino)ethoxy]ethyl]-2-fluoro-6-methylbenzamide]"
4,60,CCc1cc(Nc2nccn3c(-c4ccc(OC)c(F)c4C(F)(F)F)cnc23)ccc1C(=O)NCCOCCN [Example 231]
5,100,"COc1ccc(-c2cnc3c(Nc4cc(F)c(C(=O)NCCOCCN)c(Br)c4)nccn23)c(F)c1F [Example 217, N-(2-(2-amino-ethoxy)ethyl)-2-bromo-4-((3-(2,3-difluoro-4-methoxyphenyl)imidazo[1,2-a]pyrazin-8-yl)amino)-6-fluorobenzamide dihydrochloride]"
6,490,"CCc1cc(Nc2nccn3c(-c4ccc(OC)c(F)c4F)cnc23)ccc1C(=O)NCCNCCNCC(=O)O [Example 216, (2-((2-(4-((3-(2,3-difluoro-4-methoxyphenyl)imidazo[1,2-a]pyrazin-8-yl)amino)-2-ethyl-benzamido)ethyl)amino)ethyl) glycine]"

# Same assay, conditions: Acinetobacter baumannii, ATCC17961, 16 h, read-out: ATCC 17961 IC90
row,Compound,IC90 [nM]
1,"COc1ccc(-c2cnc3c(Nc4ccc(C(=O)NCCOCCN)c(C)c4F)nccn23)c(F)c1F [Example 61, dihydrochloride]",140
